Results as given in patent US9120793B2, “Triazolo-pyridine compound” (Eli Lilly and Company, priority 2013, dated 2015).

Assays:
Zucker fa/fa rats = test: Chronic oral glucose tolerance test (OGTT); type: in vivo, rat
Protocol: OGTTs are performed in Zucker fa/fa rats, a rodent model of insulin resistance, after 1 and 21 days of orally administered exemplified compound at 1.0, 3.0 and 10 mg/kg. A standard GPR-40 agonist at 1 mg/kg serves as the positive control. OGTTs are performed one hour post compound administration with blood samples taken for determination of glucose and insulin levels at 10, 20, 40, 60, and 120 minutes post glucose administration. […] Weight and food consumption are not altered due to any treatment during the study.

Male Balb/c mice = test: Intraperitoneal glucose tolerance test (ipGTT); type: in vivo; set-up: key to Effect on blood glucose, statistical significance compared to vehicle during ipGTT: *P < 0.05; **P < 0.01; ****P < 0.0001; ns: not significant
Text: To examine the ability of the compound of Example 1 to activate GPR-40 in-vivo resulting in anti-diabetic efficacy, i.e. reduction in plasma glucose levels, an intraperitoneal glucose tolerance test (ipGTT) study is completed, and the data is shown for the compound of Example 1, below in Table 7.
Male Balb/c (Albino mice) mice (8-9 weeks of age) are single housed, and fed with normal rodent chow diet and water ad libitum. Animals are weighed; randomized by body weight; and their daily body weights are recorded. On the night before the study, animals are fasted overnight. In the morning, animals are dosed orally with compound of Example 1 or vehicle alone 60 minutes prior to the glucose tolerance test (glucose 2 g/kg, i.p.). Blood glucose levels are determined from tail bleeds taken at 0, 3, 7, 15, 30, and 60 min after glucose challenge. […] Percent lowering in glucose is calculated from the AUC data of the compound with respect to the AUC of vehicle group. The compound of Example 1 is orally administered at 0.1, 0.3, 1.0, 3.0, 10, or 30 mg/kg, and a positive control (3-[4-(2-methyl-benzyloxy)-phenyl]-hex-4-ynoic acid) is administered at 10 mg/kg.

CC#C[C@@H](CC(=O)O)c1ccc(OCc2ccc3nc(-c4c(C)cccc4C)nn3c2)cc1 [Example 1, (3S)-3-[4-[[2-(2,6-Dimethylphenyl)-[1,2,4]triazolo[1,5-a]pyridin-6-yl]methoxy]phenyl]hex-4-ynoic acid]
Weight and food consumption (Zucker fa/fa rats; 21 days oral administration, any treatment): not altered
ED90 for glucose lowering (Zucker fa/fa rats; day 1, oral): 4.1 mg/kg
ED90 for glucose lowering (Zucker fa/fa rats; day 21, oral): 5.0 mg/kg
AUCs for glucose lowering (Zucker fa/fa rats; days 1 and 21, oral 1, 3 and 10 mg/kg, p<0.05): statistically significant
Insulin AUCs during the OGTTs (Zucker fa/fa rats; oral 1, 3 and 10 mg/kg, values not statistically significant): dose dependent elevation
glucose levels at the 15 minute time point (Male Balb/c mice; 30 mg/kg dose, oral): significantly lowered
glucose levels at the 3 or 7 minute time points (Male Balb/c mice; Example 1 0.1-30 mg/kg oral, positive control 10 mg/kg): No concentration of compound of Example 1 or the positive control significantly lowered
glucose levels at the 30 minute time point (Male Balb/c mice; Example 1 1.0, 10 and 30 mg/kg doses, positive control 10 mg/kg): significantly lowered
glucose levels at the 60 minute time point (Male Balb/c mice; Example 1 3.0, 10 and 30 mg/kg doses, positive control 10 mg/kg): significantly lowered
ED50 (Male Balb/c mice; Mus musculus, oral, 60 minutes prior to glucose 2 g/kg i.p., read-out: ED50 based on AUCs for glucose lowering): 7.6 mg/kg
Effect on blood glucose, statistical significance compared to vehicle during ipGTT (Male Balb/c mice; dose 0.1 mpk oral, time 0 min): Ns
Effect on blood glucose, statistical significance compared to vehicle during ipGTT (Male Balb/c mice; dose 0.1 mpk oral, time 3 min): ns
Effect on blood glucose, statistical significance compared to vehicle during ipGTT (Male Balb/c mice; dose 0.1 mpk oral, time 7 min): ns
Effect on blood glucose, statistical significance compared to vehicle during ipGTT (Male Balb/c mice; dose 0.1 mpk oral, time 15 min): Ns
Effect on blood glucose, statistical significance compared to vehicle during ipGTT (Male Balb/c mice; dose 0.1 mpk oral, time 30 min): ns
Effect on blood glucose, statistical significance compared to vehicle during ipGTT (Male Balb/c mice; dose 0.1 mpk oral, time 60 min): ns
Effect on blood glucose, statistical significance compared to vehicle during ipGTT (Male Balb/c mice; dose 0.3 mpk oral, time 0 min): Ns
Effect on blood glucose, statistical significance compared to vehicle during ipGTT (Male Balb/c mice; dose 0.3 mpk oral, time 3 min): ns
Effect on blood glucose, statistical significance compared to vehicle during ipGTT (Male Balb/c mice; dose 0.3 mpk oral, time 7 min): ns
Effect on blood glucose, statistical significance compared to vehicle during ipGTT (Male Balb/c mice; dose 0.3 mpk oral, time 15 min): ns
Effect on blood glucose, statistical significance compared to vehicle during ipGTT (Male Balb/c mice; dose 0.3 mpk oral, time 30 min): ns
Effect on blood glucose, statistical significance compared to vehicle during ipGTT (Male Balb/c mice; dose 0.3 mpk oral, time 60 min): ns
Effect on blood glucose, statistical significance compared to vehicle during ipGTT (Male Balb/c mice; dose 1 mpk oral, time 0 min): Ns
Effect on blood glucose, statistical significance compared to vehicle during ipGTT (Male Balb/c mice; dose 1 mpk oral, time 3 min): ns
Effect on blood glucose, statistical significance compared to vehicle during ipGTT (Male Balb/c mice; dose 1 mpk oral, time 7 min): ns
Effect on blood glucose, statistical significance compared to vehicle during ipGTT (Male Balb/c mice; dose 1 mpk oral, time 15 min): ns
Effect on blood glucose, statistical significance compared to vehicle during ipGTT (Male Balb/c mice; dose 1 mpk oral, time 30 min): * (*P < 0.05)
Effect on blood glucose, statistical significance compared to vehicle during ipGTT (Male Balb/c mice; dose 1 mpk oral, time 60 min): ns
Effect on blood glucose, statistical significance compared to vehicle during ipGTT (Male Balb/c mice; dose 3 mpk oral, time 0 min): Ns
Effect on blood glucose, statistical significance compared to vehicle during ipGTT (Male Balb/c mice; dose 3 mpk oral, time 3 min): ns
Effect on blood glucose, statistical significance compared to vehicle during ipGTT (Male Balb/c mice; dose 3 mpk oral, time 7 min): ns
Effect on blood glucose, statistical significance compared to vehicle during ipGTT (Male Balb/c mice; dose 3 mpk oral, time 15 min): ns
Effect on blood glucose, statistical significance compared to vehicle during ipGTT (Male Balb/c mice; dose 3 mpk oral, time 30 min): ns
Effect on blood glucose, statistical significance compared to vehicle during ipGTT (Male Balb/c mice; dose 3 mpk oral, time 60 min): ** (**P < 0.01)
Effect on blood glucose, statistical significance compared to vehicle during ipGTT (Male Balb/c mice; dose 10 mpk oral, time 0 min): Ns
Effect on blood glucose, statistical significance compared to vehicle during ipGTT (Male Balb/c mice; dose 10 mpk oral, time 3 min): ns
Effect on blood glucose, statistical significance compared to vehicle during ipGTT (Male Balb/c mice; dose 10 mpk oral, time 7 min): ns
Effect on blood glucose, statistical significance compared to vehicle during ipGTT (Male Balb/c mice; dose 10 mpk oral, time 15 min): ns
Effect on blood glucose, statistical significance compared to vehicle during ipGTT (Male Balb/c mice; dose 10 mpk oral, time 30 min): **** (****P < 0.0001)
Effect on blood glucose, statistical significance compared to vehicle during ipGTT (Male Balb/c mice; dose 10 mpk oral, time 60 min): **** (****P < 0.0001)
Effect on blood glucose, statistical significance compared to vehicle during ipGTT (Male Balb/c mice; dose 30 mpk oral, time 0 min): Ns
Effect on blood glucose, statistical significance compared to vehicle during ipGTT (Male Balb/c mice; dose 30 mpk oral, time 3 min): ns
Effect on blood glucose, statistical significance compared to vehicle during ipGTT (Male Balb/c mice; dose 30 mpk oral, time 7 min): ns
Effect on blood glucose, statistical significance compared to vehicle during ipGTT (Male Balb/c mice; dose 30 mpk oral, time 15 min): ** (**P < 0.01)
Effect on blood glucose, statistical significance compared to vehicle during ipGTT (Male Balb/c mice; dose 30 mpk oral, time 30 min): **** (****P < 0.0001)
Effect on blood glucose, statistical significance compared to vehicle during ipGTT (Male Balb/c mice; dose 30 mpk oral, time 60 min): **** (****P < 0.0001)
